Assay results from paper PMC9098913, “In vitro reconstitution of Escherichia coli divisome activation” (Nature Communications, 2022).

Tests used:
[1] = Nucleotide effect on membrane binding of FtsA WT (normalized intensity); conditions: Fig. S3m
FtsA self-interaction = assay: Cuvette FRET of FtsA in solution and with lipid vesicles (SUVs); assay type: binding, E. coli; conditions: for FRET efficiency: Fig. S3c, in cuvette
Experimental: For in solution FRET experiments, increasing concentrations of Cy3-FtsA and Cy5-FtsA in a 50:50 ratio were mixed in 100 µl reaction buffer (50 mM Tris-HCl [pH7.4], 150 mM KCl and 5 mM MgCl2) inside a quartz cuvette (Hellma® fluorescence cuvettes, ultra Micro). The spectrums were measured using a Spectrophotometer Spectramax M2e Plate- + Cuvette Reader (Molecular Devices). Cy3-FtsA was excited at a wavelength of 520 nm and the resulting emission spectrum was recorded from 550–700 nm in 1 nm steps. To avoid crosstalk of the excitation light, a cutoff filter was set to 550 nm. Addition of ATP or small unilamellar vesicles (SUVs) was measured individually for each concentration. Buffer controls containing the corresponding reagents and only Cy5-FtsA were measured and used as background corrections for measurements with Cy3- and Cy5-FtsA. Background corrected spectra were used to estimate FRET efficiency by E(%)=Fa/Fd+Fa⋅100 , where Fa is the peak of acceptor (=Cy5) emission at 670 nm and Fd the peak of the emission of the donor (=Cy3) spectrum at 565 nm.

FtsZ = test system: FtsZ
Experimental: Additionally, the reaction chamber contained 4 mM ATP and 4 mM GTP, as well as a scavenging system to minimize photobleaching effects: 30 mM d-glucose, 0.050 mg ml^−1 Glucose Oxidase, 0.016 mg ml^−1 Catalase, 1 mM DTT and 1 mM Trolox. Prior addition of all components a corresponding buffer volume was removed from the chamber to obtain a total reaction volume of 100 µl. The dynamic protein pattern was monitored by time-lapse TIRF microscopy at one frame per 2 s and 50 ms exposure time.

FtsA WT: wild-type E. coli actin-homologue FtsA, membrane anchor of FtsZ
Normalized intensity ([1]; AMP PNP, 0.10 µM FtsA, replicate 1): 0.07 a.u. | Normalized intensity ([1]; AMP PNP, 0.10 µM FtsA, replicate 2): 0.13 a.u. | Normalized intensity ([1]; AMPPNP, 0.20 µM FtsA, summary value): 0.62 a.u. | Normalized intensity ([1]; AMPPNP, 0.40 µM FtsA, summary value): 0.75 a.u. | Normalized intensity ([1]; AMPPNP, 0.80 µM FtsA, summary value): 1.00 a.u. | Normalized intensity ([1]; ATP, 0.10 µM FtsA, replicate 1): 0.20 a.u. | Normalized intensity ([1]; ATP, 0.10 µM FtsA, replicate 2): 0.48 a.u. | Normalized intensity ([1]; ATP, 0.10 µM FtsA, summary value): 0.37 a.u. | Normalized intensity ([1]; ATP, 0.20 µM FtsA, summary value): 0.67 a.u. | Normalized intensity ([1]; ATP, 0.40 µM FtsA, summary value): 0.82 a.u. | Normalized intensity ([1]; ATP, 0.80 µM FtsA, summary value): 0.95 a.u. | Normalized intensity ([1]; ATPgS, 0.20 µM FtsA, summary value): 0.20 a.u. | Normalized intensity ([1]; ATPgS, 0.40 µM FtsA, summary value): 0.21 a.u. | Normalized intensity ([1]; ATPgS, 0.80 µM FtsA, summary value): 0.65 a.u. | FRET efficiency (FtsA self-interaction; + SUVs, 0.05 µM, mean, n = 3): 1.50% | FRET efficiency (FtsA self-interaction; + SUVs, 0.05 µM, replicate 1): 1.29% | FRET efficiency (FtsA self-interaction; + SUVs, 0.05 µM, replicate 2): 1.96% | FRET efficiency (FtsA self-interaction; + SUVs, 0.05 µM, replicate 3): 1.25% | FRET efficiency (FtsA self-interaction; + SUVs, 0.10 µM, mean, n = 3): 6.63% | FRET efficiency (FtsA self-interaction; + SUVs, 0.10 µM, replicate 1): 6.56% | FRET efficiency (FtsA self-interaction; + SUVs, 0.10 µM, replicate 2): 7.39% | FRET efficiency (FtsA self-interaction; + SUVs, 0.10 µM, replicate 3): 5.94% | FRET efficiency (FtsA self-interaction; + SUVs, 0.20 µM, mean, n = 3): 7.59% | FRET efficiency (FtsA self-interaction; + SUVs, 0.20 µM, replicate 1): 8.16% | FRET efficiency (FtsA self-interaction; + SUVs, 0.20 µM, replicate 2): 7.75% | FRET efficiency (FtsA self-interaction; + SUVs, 0.20 µM, replicate 3): 6.87% | FRET efficiency (FtsA self-interaction; without SUVs, 0.05 µM, mean, n = 3): 0.0114% | FRET efficiency (FtsA self-interaction; without SUVs, 0.05 µM, replicate 1): 0.0544% | FRET efficiency (FtsA self-interaction; without SUVs, 0.05 µM, replicate 2): -1.50% | FRET efficiency (FtsA self-interaction; without SUVs, 0.05 µM, replicate 3): 1.48% | FRET efficiency (FtsA self-interaction; without SUVs, 0.10 µM, mean, n = 3): 1.67% | FRET efficiency (FtsA self-interaction; without SUVs, 0.10 µM, replicate 1): 1.71% | FRET efficiency (FtsA self-interaction; without SUVs, 0.10 µM, replicate 2): 2.21% | FRET efficiency (FtsA self-interaction; without SUVs, 0.10 µM, replicate 3): 1.09% | FRET efficiency (FtsA self-interaction; without SUVs, 0.20 µM, mean, n = 3): 2.87% | FRET efficiency (FtsA self-interaction; without SUVs, 0.20 µM, replicate 1): 2.43% | FRET efficiency (FtsA self-interaction; without SUVs, 0.20 µM, replicate 2): 2.56% | FRET efficiency (FtsA self-interaction; without SUVs, 0.20 µM, replicate 3): 3.62% | FRET in solution (FtsA self-interaction; cuvette, no lipid): could not detect any significant FRET signal | FRET with lipid vesicles (FtsA self-interaction; cuvette, presence of lipid vesicles): FRET increased significantly

B1: FtsA R286W (protein)
chain: MIKATDRKLVVGLEIGTAKVAALVGEVLPDGMVNIIGVGSCPSRGMDKGGVNDLESVVKCVQRAIDQAELMADCQISSVYLALSGKHISCQNEIGMVPISEEEVTQEDVENVVHTAKSVRVRDEHRVLHVIPQEYAIDYQEGIKNPVGLSGVRMQAKVHLITCHNDMAKNIVKAVERCGLKVDQLIFAGLASSYSVLTEDERELGVCVVDIGGGTMDIAVYTGGALRHTKVIPYAGNVVTSDIAYAFGTPPSDAEAIKVRHGCALGSIVGKDESVEVPSVGGRPPWSLQRQTLAEVIEPRYTELLNLVNEEILQLQEKLRQQGVKHHLAAGIVLTGGAAQIEGLAACAQRVFHTQVRIGAPLNITGLTDYAQEPYYSTAVGLLHYGKESHLNGEAEVEKRVTASVGSWIKRLNSWLRKEF
modifications: Cy3 or Cy5 at the N-terminus in the labelled form (labelled CLEPTGG peptide conjugated to the 5xGly tag by sortagging); unlabelled protein also used; left off: TwinStrep-SUMO, N-terminal, cleaved | 5x
FtsZ fluorescence intensity compared to the wild-type protein (FtsZ): increased
